Experimental findings from PMC12796986 (Journal of medicinal chemistry, 2025) are described below.

The term IC50 denotes the midpoint of a concentration-inhibition curve. A higher IC50 goes with a need for much substance.

For the assay, the target named is mpox resolvase (Mpr) (Monkeypox virus, UniProt A0A7H0DNC1). The assay can be described thus: biochemical. The format is biochemical.
Sequence of mpox resolvase (Mpr) (A0A7H0DNC1 whole entry, looked up): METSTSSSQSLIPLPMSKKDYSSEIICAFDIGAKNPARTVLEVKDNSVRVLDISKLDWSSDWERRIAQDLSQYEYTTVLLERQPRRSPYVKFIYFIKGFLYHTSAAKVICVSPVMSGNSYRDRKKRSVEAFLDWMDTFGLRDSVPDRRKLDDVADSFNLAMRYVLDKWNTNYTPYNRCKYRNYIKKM
On to “3-(5,8-dihydroxy-7-oxo-6-phenyl-7,8-dihydro-1,8-naphthyridin-3-yl) benzamide [4a-12]”, for which the “fluorescence quenching in the FRET assay” value is listed as “fluorescence quenching”. `O=c1c(-c2ccccc2)c(O)c2cc(-c3ccc(-c4ccccc4)cc3)cnc2n1O` [4a-2, 6-([1,1’-biphenyl]-4-yl)-1,4-dihydroxy-3-phenyl-1,8-naphthyridin-2(1H)-one] displayed an IC50 of 250 ± 10 nM. Still for that read-out and setting: with `COc1ccc2cc(-c3cnc4c(c3)c(O)c(-c3ccccc3)c(=O)n4O)ccc2c1` [4a-4, 1,4-dihydroxy-6-(6-methoxynaphthalen-2-yl)-3-phenyl-1,8-naphthyridin-2(1H)-one] the figure was 970 ± 30 nM; with `O=c1c(-c2ccccc2)c(O)c2cc(-c3ccccc3F)cnc2n1O` [4a-6, 6-(2-fluorophenyl)-1,4-dihydroxy-3-phenyl-1,8-naphthyridin-2(1H)-one], 1100 ± 100 nM. As for `O=c1c(-c2ccccc2)c(O)c2cc(-c3ccc(C(F)(F)F)cc3)cnc2n1O` [4a-7, 1,4-dihydroxy-3-phenyl-6-(4-(trifluoromethyl)phenyl)-1,8-naphthyridin-2(1H)-one], half-maximal inhibition (IC50) required 600 ± 100 nM. This IC50 lies about 1.8-fold lower than the previous one. `CSc1ccc(-c2cnc3c(c2)c(O)c(-c2ccccc2)c(=O)n3O)cc1` [4a-8, 1,4-dihydroxy-6-(4-(methylthio)phenyl)-3-phenyl-1,8-naphthyridin-2(1H)-one] yielded an IC50 of 370 ± 30 nM. As for `COc1ccc(OC)c(-c2cnc3c(c2)c(O)c(-c2ccccc2)c(=O)n3O)c1` [4a-9, 6-(2,5-dimethoxyphenyl)-1,4-dihydroxy-3-phenyl-1,8-naphthyridin-2(1H)-one], the IC50 was 1400 ± 100 nM.

Consider `O=c1c(-c2ccccc2)c(O)c2cc(-c3ccsc3)cnc2n1O` [4a-11, 1,4-dihydroxy-3-phenyl-6-(thiophen-3-yl)-1,8-naphthyridin-2(1H)-one], for which the half-inhibitory concentration (IC50) stood at 1300 ± 300 nM.

As to `O=c1c(-c2ccccc2)c(O)c2cc(Br)cnc2n1O` [4a-14, 6-bromo-1,4-dihydroxy-3-phenyl-1,8-naphthyridin-2(1H)-one], the IC50 worked out at 7600 ± 100 nM. On the same count and under the same terms, under `O=c1c(-c2ccccc2)c(O)c2cc(-c3ccc(O)cc3)cnc2n1O` [4a-15, 1,4-dihydroxy-6-(4-hydroxyphenyl)-3-phenyl-1,8-naphthyridin-2(1H)-one] stands 1500 ± 100 nM. On to `Cc1ccc(-c2cnc3c(c2)c(O)c(-c2ccccc2)c(=O)n3O)cc1` [4a-16, 1,4-dihydroxy-3-phenyl-6-(p-tolyl)-1,8-naphthyridin-2(1H)-one], for which the IC50 is 1900 ± 400 nM. Still for that read-out and setting: with `CSc1cccc(-c2cnc3c(c2)c(O)c(-c2ccccc2)c(=O)n3O)c1` [4a-17, 1,4-dihydroxy-6-(3-(methylthio)phenyl)-3-phenyl-1,8-naphthyridin-2(1H)-one] the figure was 600 ± 100 nM; with `O=c1c(-c2ccccc2)c(O)c2cc(-c3ccc4c(c3)OCO4)cnc2n1O` [4a-19, 6-(benzo[d][1,3]dioxol-5-yl)-1,4-dihydroxy-3-phenyl-1,8-naphthyridin-2(1H)-one], 1100 ± 100 nM. The same measure, in the same setting: under `N#Cc1ccc(-c2cnc3c(c2)c(O)c(-c2ccccc2)c(=O)n3O)cc1` [4a-20, 4-(5,8-dihydroxy-7-oxo-6-phenyl-7,8-dihydro-1,8-naphthyridin-3-yl) benzonitrile] stands 1900 ± 200 nM; under `NS(=O)(=O)c1ccc(-c2cnc3c(c2)c(O)c(-c2ccccc2)c(=O)n3O)cc1` [4a-21, 4-(5,8-dihydroxy-7-oxo-6-phenyl-7,8-dihydro-1,8-naphthyridin-3-yl)benzenesulfonamide], 1500 ± 100 nM. As for `O=c1c(-c2ccccc2)c(O)c2cc(-c3ccc(F)cc3F)cnc2n1O` [4a-22, 6-(2,4-difluorophenyl)-1,4-dihydroxy-3-phenyl-1,8-naphthyridin-2(1H)-one], the “fluorescence quenching in the FRET assay” value is recorded as “fluorescence quenching”. As to `O=c1c(-c2ccccc2)c(O)c2cc(-c3ccc(C(F)(F)F)cc3C(F)(F)F)cnc2n1O` [4a-23, 6-(2,4-bis(trifluoromethyl)phenyl)-1,4-dihydroxy-3-phenyl-1,8-naphthyridin-2(1H)-one], the concentration for half-maximal inhibition (IC50) turned out to be 2700 ± 400 nM. For the molecule `O=c1c(-c2ccccc2)c(O)c2cc(-c3c(F)cc(F)cc3F)cnc2n1O` [4a-24, 1,4-dihydroxy-3-phenyl-6-(2,4,6-trifluorophenyl)-1,8-naphthyridin-2(1H)-one], the “fluorescence quenching in the FRET assay” value was “fluorescence quenching”.

On to `O=c1c(-c2ccccc2)c(O)c2cc(-c3cccnc3)cnc2n1O` [4a-25, 1,4-dihydroxy-3-phenyl-6-(pyridin-3-yl)-1,8-naphthyridin-2(1H)-one], for which the IC50 stood at 12000 ± 1000 nM. Still for that read-out and setting: with `O=c1c(-c2ccccc2)c(O)c2cc(-c3cncnc3)cnc2n1O` [4a-26, 1,4-dihydroxy-3-phenyl-6-(pyrimidin-5-yl)-1,8-naphthyridin-2(1H)-one] the figure was 15000 ± 1000 nM; with `O=c1c(-c2ccccc2)c(O)c2cc(-c3ccco3)cnc2n1O` [4a-27, 6-(furan-2-yl)-1,4-dihydroxy-3-phenyl-1,8-naphthyridin-2(1H)-one], 4000 ± 200 nM. Consider `CC(=O)c1ccc(-c2cnc3c(c2)c(O)c(-c2ccccc2)c(=O)n3O)s1` [4a-28, 6-(5-acetylthiophen-2-yl)-1,4-dihydroxy-3-phenyl-1,8-naphthyridin-2(1H)-one], for which the “fluorescence quenching in the FRET assay” value is “fluorescence quenching”. For `O=c1c(-c2ccccc2)c(O)c2cc(-c3cnc4ccccc4c3)cnc2n1O` [4a-29, 1,4-dihydroxy-3-phenyl-6-(quinolin-3-yl)-1,8-naphthyridin-2(1H)-one], the “Mpr inhibition” value is “did not inhibit Mpr”.

On to `O=c1c(-c2ccccc2)c(O)c2cc(C3CC3)cnc2n1O` [4a-30, 6-cyclopropyl-1,4-dihydroxy-3-phenyl-1,8-naphthyridin-2(1H)-one], for which the IC50 turned out to be 8000 ± 1000 nM. Take `O=c1c(-c2ccccc2)c(O)c2cccnc2n1O` [4a-31, 1,4-dihydroxy-3-phenyl-1,8-naphthyridin-2(1H)-one]: 17000 ± 1000 nM corresponded to half-maximal inhibition (IC50). In turn, `CCc1c(O)c2cc(-c3cccc(-c4ccccc4)c3)cnc2n(O)c1=O` [4b-1, 6-([1,1’-biphenyl]-3-yl)-3-ethyl-1,4-dihydroxy-1,8-naphthyridin-2(1H)-one] registered an IC50 of 800 ± 30 nM. This IC50 lies about 21-fold lower than the previous one. Still for that read-out and setting: with `CCc1c(O)c2cc(-c3ccc4cc(OC)ccc4c3)cnc2n(O)c1=O` [4b-4, 3-ethyl-1,4-dihydroxy-6-(6-methoxynaphthalen-2-yl)-1,8-naphthyridin-2(1H)-one] the figure was 1600 ± 300 nM; with `CCc1c(O)c2cc(-c3ccccc3)cnc2n(O)c1=O` [4b-5, 3-ethyl-1,4-dihydroxy-6-phenyl-1,8-naphthyridin-2(1H)-one], 5300 ± 200 nM. Still for that read-out and setting: with `CCc1c(O)c2cc(-c3ccccc3F)cnc2n(O)c1=O` [4b-6, 3-ethyl-6-(2-fluorophenyl)-1,4-dihydroxy-1,8-naphthyridin-2(1H)-one] the figure was 2100 ± 900 nM; with `CCc1c(O)c2cc(-c3ccc(C(F)(F)F)cc3)cnc2n(O)c1=O` [4b-7, 3-ethyl-1,4-dihydroxy-6-(4-(trifluoromethyl)phenyl)-1,8-naphthyridin-2(1H)-one], 2500 ± 100 nM; with `CCc1c(O)c2cc(-c3ccc(SC)cc3)cnc2n(O)c1=O` [4b-8, 3-ethyl-1,4-dihydroxy-6-(4-(methylthio)phenyl)-1,8-naphthyridin-2(1H)-one], 700 ± 100 nM. The molecule `CCc1c(O)c2cc(-c3cc(OC)ccc3OC)cnc2n(O)c1=O` [4b-9, 6-(2,5-dimethoxyphenyl)-3-ethyl-1,4-dihydroxy-1,8-naphthyridin-2(1H)-one] showed an IC50 of 1500 ± 100 nM. Against the preceding molecule, the IC50 is about 2.1-fold higher. Molecule `CCc1c(O)c2cc(-c3ccc(OC)c(F)c3)cnc2n(O)c1=O` [4b-10, 3-ethyl-6-(3-fluoro-4-methoxyphenyl)-1,4-dihydroxy-1,8-naphthyridin-2(1H)-one] registered an IC50 of 5000 ± 1000 nM. This IC50 lies about 3.3-fold higher than the previous one. On the same count and under the same terms, under `CCc1c(O)c2cc(-c3ccsc3)cnc2n(O)c1=O` [4b-11, 3-ethyl-1,4-dihydroxy-6-(thiophen-3-yl)-1,8-naphthyridin-2(1H)-one] stands 3900 ± 100 nM. On the same count and under the same terms, with `O=c1cc(O)c2cc(-c3cccc(-c4ccccc4)c3)cnc2n1O` [4c-1, 6-([1,1’-biphenyl]-3-yl)-1,4-dihydroxy-1,8-naphthyridin-2(1H)-one] the figure was 120 ± 10 nM. Consider `O=c1cc(O)c2cc(-c3ccc(-c4ccccc4)cc3)cnc2n1O` [4c-2, 6-([1,1’-biphenyl]-4-yl)-1,4-dihydroxy-1,8-naphthyridin-2(1H)-one], for which the “fluorescence quenching in the FRET assay” value is given as “direct quenching of fluorophore”. For the molecule `O=c1cc(O)c2cc(-c3ccc(Oc4ccccc4)cc3)cnc2n1O` [4c-3, 1,4-dihydroxy-6-(4-phenoxyphenyl)-1,8-naphthyridin-2(1H)-one], the “fluorescence quenching in the FRET assay” value is recorded as “direct quenching of fluorophore”. Regarding `COc1ccc2cc(-c3cnc4c(c3)c(O)cc(=O)n4O)ccc2c1` [4c-4, 1,4-dihydroxy-6-(6-methoxynaphthalen-2-yl)-1,8-naphthyridin-2(1H)-one], the half-inhibitory concentration (IC50) was determined as 240 ± 30 nM. Same read-out and setting: under `O=c1cc(O)c2cc(-c3ccccc3)cnc2n1O` [4c-5, 1,4-dihydroxy-6-phenyl-1,8-naphthyridin-2(1H)-one] stands 1800 ± 10 nM; under `O=c1cc(O)c2cc(-c3ccccc3F)cnc2n1O` [4c-6, 6-(2-fluorophenyl)-1,4-dihydroxy-1,8-naphthyridin-2(1H)-one], 1000 ± 100 nM. On the same count and under the same terms, under `O=c1cc(O)c2cc(-c3ccc(C(F)(F)F)cc3)cnc2n1O` [4c-7, 1,4-dihydroxy-6-(4-(trifluoromethyl)phenyl)-1,8-naphthyridin-2(1H)-one] stands 470 ± 50 nM.

In the case of `CSc1ccc(-c2cnc3c(c2)c(O)cc(=O)n3O)cc1` [4c-8, 1,4-dihydroxy-6-(4-(methylthio)phenyl)-1,8-naphthyridin-2(1H)-one], the “fluorescence quenching in the FRET assay” value is recorded as “direct quenching of fluorophore”. Consider `COc1ccc(OC)c(-c2cnc3c(c2)c(O)cc(=O)n3O)c1` [4c-9, 6-(2,5-dimethoxyphenyl)-1,4-dihydroxy-1,8-naphthyridin-2(1H)-one], for which half-maximal inhibition (IC50) was put at 1600 ± 100 nM.

The molecule `COc1ccc(-c2cnc3c(c2)c(O)cc(=O)n3O)cc1F` [4c-10, 6-(3-fluoro-4-methoxyphenyl)-1,4-dihydroxy-1,8-naphthyridin-2(1H)-one] yielded an IC50 of 2500 ± 500 nM. On to `O=c1cc(O)c2cc(-c3ccsc3)cnc2n1O` [4c-11, 1,4-dihydroxy-6-(thiophen-3-yl)-1,8-naphthyridin-2(1H)-one], for which the “fluorescence quenching in the FRET assay” value is reported as “direct quenching of fluorophore”.
